Legend:
MDA-MB-231 = assay: Cancer cell growth inhibition, MDA-MB-231; type: cell-based; details: Homo sapiens, Table 2, Breast adenocarcinoma, read-out: cancer cell growth suppression
Protocol: (§1) Cell lines and establishment of stable cell lines. Human breast cancer cell lines MDA-MB-231 and MDA-MB-468, osteosarcoma line U20S, cervical adenocarcinoma line HeLa, and normal skin fibroblast Hs27 were maintained in DMEM medium (Invitrogen, Grand Island, N.Y.) supplemented 10% fetal bovine serum (FBS) and 1% penicillin-streptomycin. The leukemia cell line K562 and glioblastoma cell line T98G were grown in RPMI 1640 supplemented 10% FBS and 1% penicillin-streptomycin. Normal mammary gland epithelial cell line MCF10A was cultured in DMEM/F12 (50:50) plus 5% horse serum, 0.1 μg/mL cholera toxin, 10 μg/mL insulin, 0.5 μg/mL hydrocortisone, and 20 ng/mL epidermal growth factor. To establish MDA-MB-468 cells that stably expressed each individual GFP-Hec1 deletion construct described above, cells were infected with retrovirus expressing GFP-Hec1 WT, GFP-Hec1 W395A and GFP-Hec1 WLK/AAA, and were selected with 2 μg/ml puromycin.

K562 = assay: Cancer cell growth inhibition, K562 leukemia; type: cell-based; details: Homo sapiens, Table 2, Leukemia, read-out: cancer cell growth suppression
Protocol: as §1

T98G = assay: Cancer cell growth inhibition, T98G glioblastoma; type: cell-based; details: Homo sapiens, Table 2, Glioblastoma, read-out: cancer cell growth suppression
Protocol: as §1

HS27 = assay: Growth inhibition, normal skin fibroblast HS27; type: cell-based; details: for IC50: Homo sapiens, Table 2, Fibroblast, HS27, read-out: cell growth suppression; for growth inhibitory effect on non-tumorgenic fibroblast cells: data not shown
Protocol: as §1

MCF10A = assay: Growth inhibition, normal mammary epithelial MCF10A; type: cell-based; details: for IC50: Homo sapiens, MCF-10A, Table 2, Epithelial, MCF10A, read-out: cell growth suppression; for growth inhibitory effect on non-tumorgenic epithelial cells: data not shown
Protocol: as §1

[1] = test system: MDA-MB-468 breast cancer cells tumor xenografts; assay: Breast tumor xenograft model; type: in vivo, athymic nude mice; details: versus vehicle; for tumor growth rate: thrice-weekly i.p., 10 or 50 mg/kg INH41, 5 or 20 mg/kg INH154, 6.5 weeks; for percentage of proliferating tumor cells (BrdU staining) / phosphorylation of Hec1 at S165 in tumors: tumors harvested one week after last injection
Excerpt: INH inhibition of breast tumor growth in xenograft model. We performed in vivo xenograft mouse experiments to examine the efficacy of INHs in accordance with guidelines and protocols of the University of California at Irvine Animal Research Committee. MDA-MB-468 breast cancer cells (2×10^6) were inoculated into mammary fat pads of 6-8 week old athymic nude mice mice (nu/nu; Harlan Sprague-Dawley Inc., Indianapolis, Ind.) to form tumor xenografts. […] Administration of control and INH treatments was carried out for 6.5 weeks and tumor sizes were measured. Mice body weights and tumor sizes were measured twice weekly. Tumor volume was calculated as (length×width^2)/2 (in mm), and data were presented as mean tumor volume±SEM.
One week after the last injections were administered, mice were sacrificed and their tumors were harvested for immunohistochemistry analysis. […] Error bars represent SE (n=4) in FIGS. 2C and 2D.
Immunohistochemistry analysis was conducted as follows. Paraffin-embedded tumor sections (5 μm) were incubated with primary antibody, counterstained with hematoxylin, and detected using a LSAB™ kit (DakoCytomation) according to the manufacturer's instructions. BrdU antibody was purchased from GeneTex, Irvine, Calif. and Hec1 pS165 antibody was prepared as described in Wei et al. Phosphorylation of the Ndc80 complex protein, HEC1, by Nek2 kinase modulates chromosome alignment and signaling of the spindle assembly checkpoint. Molecular biology of the cell 22, 3584-3594 (2011), hereby incorporated by reference in its entirety.

HeLa cells [2] = assay: Mitotic abnormalities in HeLa cells; type: cell-based, human; details: for chromosomal misalignment: 24 hrs of treatment, versus DMSO
Excerpt: (§2) INH-triggered mitotic catastrophe. […] Error bars represent SE, n=>200 per sample in FIG. 3A. […] Error bars represent SE n=200 in FIG. 3B. Over time, the accumulation of chromosomal and spindle abnormalities led to cell death.

HeLa cells [3] = assay: Apoptosis assay, flow cytometry with Annexin-V staining; type: cell-based, human; details: after 48 hours, DMSO 1.8%
Protocol: as §2
The apoptosis assay was conducted as follows. 1×10^6 cells were collected and resuspended in 100 μl binding buffer (10 mM HEPES, pH 7.4; 140 mM NaCl; 2.5 mM CaCl2) after INH or control treatment for 48 hrs. To the collected cells was added 5 μl of Annexin V-FITC and 1 μl of propidium iodide (PI, […]). The cells were then gently vortexed and incubated for 15 minutes at room temperature in the dark. The samples were analyzed by flow cytometry after an additional 400 μl of binding buffer was added to each tube.

Nek2 = Nek2 protein level in treated HeLa cells, western blot; type: cell-based; details: dose series
Protocol: (§3) INH-induced Nek2 degradation; INH-inhibition of Hec1 phosphorylation by Nek2. […] To evaluate whether INH treatment affected cell cycle profile or Nek2 mRNA level, we performed FACS and real-time PCR analysis.
(§4) Protein extraction and western blot analysis. The protein extractions and western blot analyses of Examples 4-6 were conducted as follows. Cell extracts were prepared and equal amounts of protein were separated by SDS-PAGE (10% w/v gel) followed by electrophoretic transfer to PVDF membranes (Millipore, Billerica, Mass.). After blocking with 5% w/v powdered non-fat milk, the membrane was incubated with different antibodies for overnight at 4° C. and treated for 1 hr with horseradish peroxidase-conjugated goat anti-mouse IgG and goat anti-rabbit IgG antibodies (GeneTex, Irvine, Calif.). ECL detection of the horseradish peroxidase reaction was performed according to the manufacturer's instructions (Millipore, Billerica, Mass.). Protein signal was measured on a LAS 4000 mini Imaging System (Fujifilm, Valhalla, N.Y.).

Aurora A = Aurora A expression in treated HeLa cells, western blot; type: cell-based; details: dose series
Protocol: as §3, §4

pS165 Hec1 = assay: Phosphorylated Hec1 (pS165 Hec1) level in treated HeLa cells; type: cell-based; details: 1 μM, 4 to 24 hours
Protocol: as §4
The following antibodies were used in the experiments described in Examples 4-6. Mouse anti-Hec1 clone 9G3, mouse anti-Nek2, mouse anti-myc, mouse anti-PLK1, mouse anti-p84, mouse anti-GAPDH, rabbit anti-Aurora A and rabbit anti-cyclin B1 antibodies (GeneTex, Irvine, Calif.), mouse anti-GFP (Roche, Indianapolis, Ind.), human anti-ACA (Antibodies Inc., Davis, Calif.), mouse anti-alpha-tubulin, rabbit anti-gamma tubulin (Sigma-Aldrich, St. Louis, Mo.), and secondary antibodies conjugated with Alexa dyes (Invitrogen, Grand Island, N.Y.). […]

Row | Compound | IC50 (MDA-MB-231) [nM] | IC50 (K562) [nM] | IC50 (T98G) [nM] | IC50 (HS27) [nM] | growth inhibitory effect on non-tumorgenic fibroblast cells (HS27) | IC50 (MCF10A) [nM] | growth inhibitory effect on non-tumorgenic epithelial cells (MCF10A) | tumor growth rate [1] | percentage of proliferating tumor cells (BrdU staining) [1] | phosphorylation of Hec1 at S165 in tumors [1] | chromosomal misalignment (HeLa cells [2]) | multipolar spindle configurations in the mitotic population (HeLa cells [2]; time course) | percentage of apoptotic cells (HeLa cells [3]) [%] | Nek2 degradation, dose dependence (Nek2) | expression of Aurora A (Aurora A) | phosphorylated Hec1 levels (pS165 Hec1) (pS165 Hec1)
1 | Cc1cc(C)c(-c2csc(C(=O)c3ccncc3)n2)c(C)c1 [INH41, (4-mesitylthiazol-2-yl)(pyridin-4-yl)methanone] | 400 | 620 | 860 | 62000 | Neither INH41 nor INH154 had significant growth inhibitory effects | 58000 | Neither INH41 nor INH154 had significant growth inhibitory effects | significantly slower | reduced | substantially reduced | increased chromosomal misalignment | aggravated in a time-dependent manner | 17.4 | degraded in a dose-dependent manner | not affected | notably reduced in a time-dependent fashion
2 | Cc1cc(N2CCCCC2)cc(C)c1-c1csc(NC(=O)c2ccncc2)n1 [INH154, N-(4-(2,6-Dimethyl-4-(piperidin-1-yl)phenyl)thiazol-2-yl)isonicotinamide] | 140 | 110 | 140 | 40000 | Neither INH41 nor INH154 had significant growth inhibitory effects | 36000 | Neither INH41 nor INH154 had significant growth inhibitory effects | significantly slower | reduced | substantially reduced | increased chromosomal misalignment | – | 67.6 | degraded in a dose-dependent manner | not affected | notably reduced in a time-dependent fashion

— patent publication US9670197B2, “Small molecule modifiers of the Hec1-Nek2 interaction in G2/M” (The Regents of the University of California, priority 2013, dated 2017)
